Reference: patent US7449447B2, “Peptidomimetic NS3-serine protease inhibitors of hepatitis C virus” (priority 2003, dated 2008)
*1 amine or outer side, *2 acyl side, *3 side chain or, on linkers, in order; H or OH if unused. Where a SMILES comes first, the peptide text is derived from it. [ ]: non-standard residue; d: D form. The star is where a group is joined. Pro(3R,4S-CMe2) = CC1(C)[C@@H]2[C@@H](C(=O)O)NC[C@@H]21; Abu(4,4-F2) = N[C@@H](CC(F)F)C(=O)O; Phg = N[C@H](C(=O)O)c1ccccc1; Tle = CC(C)(C)[C@H](N)C(=O)O; CO = O=C([*:1])[*:2]; X2 = CC1(N*)CCCCC1

Biological target: T1, HCV NS3/NS4a serine protease (Hepatitis C virus genotype 1b, UniProt P26663)
T1 construct: amino terminus of the NS3 protease domain (amino acids 3-181) with a tetrapeptide linker; made in house; host or cells: E. coli
T1 sequence (P26663 1013-1207, looked up, natural form): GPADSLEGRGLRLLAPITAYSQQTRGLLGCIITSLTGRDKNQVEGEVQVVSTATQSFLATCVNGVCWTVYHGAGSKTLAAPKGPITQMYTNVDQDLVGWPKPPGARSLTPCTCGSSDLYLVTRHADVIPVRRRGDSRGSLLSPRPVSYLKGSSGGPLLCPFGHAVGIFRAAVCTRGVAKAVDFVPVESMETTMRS
Experiment: Spectrophotometric assay for HCV protease inhibitory activity (chromogenic ester substrates)
Format: biochemical, hepatitis C virus (strain 1b)
Settings: Ki Rating, Table 2; single chain NS4A21-32-GSGS-NS3 3-181 protease, 30° C., pH 6.5
Method in brief: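 Single-chain NS4A(21-32)-GSGS-NS3(3-181) protease (genotype 1b) from E. coli was used at 1.3 nM in 25 mM MOPS pH 6.5 with 300 mM NaCl, 30 °C and 4% DMSO. Chromogenic ester substrate cleavage was followed as PAP release at 370 nm over 60 min. Ki was derived from vo/vi versus [I] plots assuming competitive inhibition.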

SMILES | Ki
CC(C)(C)[C@H](NC(=O)NC1(CS(C)(=O)=O)CCCCC1)C(=O)N1C[C@H]2[C@@H](C1C(=O)NC(CC(F)F)C(=O)NCCc1ccc(C(N)=O)cc1)C2(C)C (stereo partly drawn) [Example 135] | 100 to 500 nM
CC(C)[C@H](NC(=O)N[C@H](C(=O)N1C[C@H]2[C@@H]([C@H]1C(=O)N[C@@H](CC(F)F)C(=O)NCCC(=O)O)C2(C)C)C(C)(C)C)C(=O)O [Example 160] | > 500 nM
CC(C)[C@H](NC(=O)N[C@H](C(=O)N1C[C@H]2[C@@H]([C@H]1C(=O)N[C@@H](CC(F)F)C(=O)NCCc1ccc(C(N)=O)cc1)C2(C)C)C(C)(C)C)C(=O)O [Example 124] | 100 to 500 nM
CN(C)C(=O)[C@@H](NC(=O)CNC(=O)[C@H](CC(F)F)NC(=O)[C@@H]1[C@@H]2[C@H](CN1C(=O)[C@@H](NC(=O)NC1(C)CCCCC1)C(C)(C)C)C2(C)C)c1ccccc1 [Example 172] ({X2-CO}-[Tle][Pro(3R,4S-CMe2)][Abu(4,4-F2)]G[Phg]-NMe2) | > 500 nM
COC(=O)c1ccc(CCNC(=O)[C@H](CC(F)F)NC(=O)[C@@H]2[C@@H]3[C@H](CN2C(=O)[C@@H](NC(=O)OC(C)(C)C)C(C)(C)C)C3(C)C)cc1 [Example 148] | > 500 nM
CC(C)[C@H](NC(=O)N[C@H](C(=O)N1C[C@H]2[C@@H]([C@H]1C(=O)N[C@@H](CC(F)F)C(=O)NCCc1ccc(C(=O)N(C)C)cc1)C2(C)C)C(C)(C)C)C(=O)OC(C)(C)C [Example 141] | 100 to 500 nM
CC1(NC(=O)N[C@H](C(=O)N2C[C@H]3[C@@H]([C@H]2C(=O)NC(CC(F)F)C(=O)O)C3(C)C)C(C)(C)C)CCCCC1 (stereo partly drawn) [Example 156] | > 500 nM
CC(C)[C@H](NC(=O)N[C@H](C(=O)N1C[C@H]2[C@@H]([C@H]1C(=O)N[C@@H](CC(F)F)C(N)=O)C2(C)C)C(C)(C)C)C(=O)OC(C)(C)C [Example 164] | > 500 nM
CC1(NC(=O)N[C@H](C(=O)N2C[C@H]3[C@@H]([C@H]2C(=O)N[C@@H](CC(F)F)C(=O)NCCC(=O)O)C3(C)C)C(C)(C)C)CCCCC1 [Example 165] | > 500 nM
COC(=O)[C@H](CC(F)F)NC(=O)[C@@H]1[C@H]2CC(C)(C)O[C@H]2CN1C(=O)[C@@H](NC(=O)OCc1ccccc1)C1CCCCC1 [Example 170] | > 500 nM
CC(C)[C@H](NC(=O)N[C@H](C(=O)N1C[C@H]2[C@@H]([C@H]1C(=O)N[C@@H](CC(F)F)C(=O)NCCc1ccc(C(N)=O)cc1)C2(C)C)C(C)(C)C)C(N)=O [Example 144] | 100 to 500 nM
CC(C)[C@H](NC(=O)N[C@H](C(=O)N1C[C@H]2[C@@H]([C@H]1C(=O)N[C@@H](CC(F)F)C(=O)NCCc1ccc(C(=O)O)cc1)C2(C)C)C(C)(C)C)C(=O)c1ccccc1 [Example 132] | 100 to 500 nM

Same assay, conditions: Ki, Table 1; single chain NS4A21-32-GSGS-NS3 3-181 protease, 30° C., pH 6.5

SMILES | Ki
CC(C)(C)[C@H](NC(=O)NC1(CS(C)(=O)=O)CCCCC1)C(=O)N1C[C@H]2[C@@H](C1C(=O)NC(CC(F)F)C(=O)NCCc1ccc(C(N)=O)cc1)C2(C)C (stereo partly drawn) [Example 109] | 38 nM

Same assay, conditions: Ki, Table 3; rating; single chain NS4A21-32-GSGS-NS3 3-181 protease, 30° C., pH 6.5

SMILES | Ki
C[C@H](NC(=O)[C@H](CC(F)F)NC(=O)[C@@H]1[C@@H]2[C@H](CN1C(=O)[C@@H](NC(=O)N[C@H](CN(C)S(C)(=O)=O)C(C)(C)C)C(C)(C)C)C2(C)C)[C@H](O)c1ccccc1 [Example 248] | < 100 nM
COc1ccc(CCNC(=O)[C@H](CC(F)F)NC(=O)[C@@H]2[C@@H]3[C@H](CN2C(=O)[C@@H](NC(=O)N[C@H](CN(C)S(C)(=O)=O)C(C)(C)C)C(C)(C)C)C3(C)C)cc1O [Example 295] | < 100 nM
Cc1ccc(CCNC(=O)[C@H](CC(F)F)NC(=O)[C@@H]2[C@@H]3[C@H](CN2C(=O)[C@@H](NC(=O)N[C@H](CN(C)S(C)(=O)=O)C(C)(C)C)C(C)(C)C)C3(C)C)cc1C [Example 267] | < 100 nM
COc1ccc(OC)c(CCNC(=O)[C@H](CC(F)F)NC(=O)[C@@H]2[C@@H]3[C@H](CN2C(=O)[C@@H](NC(=O)N[C@H](CN(C)S(C)(=O)=O)C(C)(C)C)C(C)(C)C)C3(C)C)c1 [Example 279] | 100 to 500 nM
CC(NC(=O)[C@H](CC(F)F)NC(=O)[C@@H]1[C@@H]2[C@H](CN1C(=O)[C@@H](NC(=O)N[C@H](CN(C)S(C)(=O)=O)C(C)(C)C)C(C)(C)C)C2(C)C)c1ccc(Cl)cc1 (stereo partly drawn) [Example 226] | > 500 nM
CN(C[C@@H](NC(=O)N[C@H](C(=O)N1C[C@H]2[C@@H]([C@H]1C(=O)N[C@@H](CC(F)F)C(=O)NCCc1ccccc1Br)C2(C)C)C(C)(C)C)C(C)(C)C)S(C)(=O)=O [Example 289] | < 100 nM
COc1cccc(CCNC(=O)[C@H](CC(F)F)NC(=O)[C@@H]2[C@@H]3[C@H](CN2C(=O)[C@@H](NC(=O)N[C@H](CN(C)S(C)(=O)=O)C(C)(C)C)C(C)(C)C)C3(C)C)c1 [Example 270] | < 100 nM
CN(C[C@@H](NC(=O)N[C@H](C(=O)N1C[C@H]2[C@@H]([C@H]1C(=O)N[C@@H](CC(F)F)C(=O)NCCCc1ccccc1)C2(C)C)C(C)(C)C)C(C)(C)C)S(C)(=O)=O [Example 220] | > 500 nM
CN(C[C@@H](NC(=O)N[C@H](C(=O)N1C[C@H]2[C@@H]([C@H]1C(=O)N[C@@H](CC(F)F)C(=O)NCCc1ccccc1F)C2(C)C)C(C)(C)C)C(C)(C)C)S(C)(=O)=O [Example 263] | < 100 nM
CCc1ccc(CCNC(=O)[C@H](CC(F)F)NC(=O)[C@@H]2[C@@H]3[C@H](CN2C(=O)[C@@H](NC(=O)N[C@H](CN(C)S(C)(=O)=O)C(C)(C)C)C(C)(C)C)C3(C)C)cc1 [Example 268] | < 100 nM
CC(CCc1ccccc1)NC(=O)[C@H](CC(F)F)NC(=O)[C@@H]1[C@@H]2[C@H](CN1C(=O)[C@@H](NC(=O)N[C@H](CN(C)S(C)(=O)=O)C(C)(C)C)C(C)(C)C)C2(C)C (stereo partly drawn) [Example 225] | > 500 nM
CN(C[C@@H](NC(=O)N[C@H](C(=O)N1C[C@H]2[C@@H]([C@H]1C(=O)N[C@@H](CC(F)F)C(=O)NCc1ccccn1)C2(C)C)C(C)(C)C)C(C)(C)C)S(C)(=O)=O [Example 233] | > 500 nM
CN(C[C@@H](NC(=O)N[C@H](C(=O)N1C[C@H]2[C@@H]([C@H]1C(=O)N[C@@H](CC(F)F)C(=O)NCCCn1cccc1)C2(C)C)C(C)(C)C)C(C)(C)C)S(C)(=O)=O [Example 238] | > 500 nM
CC(NC(=O)[C@H](CC(F)F)NC(=O)[C@@H]1[C@@H]2[C@H](CN1C(=O)[C@@H](NC(=O)N[C@H](CN(C)S(C)(=O)=O)C(C)(C)C)C(C)(C)C)C2(C)C)c1ccccc1 (stereo partly drawn) [Example 215] | > 500 nM
CC(C)OCCCNC(=O)[C@H](CC(F)F)NC(=O)[C@@H]1[C@@H]2[C@H](CN1C(=O)[C@@H](NC(=O)N[C@H](CN(C)S(C)(=O)=O)C(C)(C)C)C(C)(C)C)C2(C)C [Example 214] | > 500 nM
COc1ccc(Br)cc1CCNC(=O)[C@H](CC(F)F)NC(=O)[C@@H]1[C@@H]2[C@H](CN1C(=O)[C@@H](NC(=O)N[C@H](CN(C)S(C)(=O)=O)C(C)(C)C)C(C)(C)C)C2(C)C [Example 300] | < 100 nM
CC(C)CNC(=O)[C@H](CC(F)F)NC(=O)[C@@H]1[C@@H]2[C@H](CN1C(=O)[C@@H](NC(=O)N[C@H](CN(C)S(C)(=O)=O)C(C)(C)C)C(C)(C)C)C2(C)C [Example 206] | > 500 nM
CN(C[C@@H](NC(=O)N[C@H](C(=O)N1C[C@H]2[C@@H]([C@H]1C(=O)N[C@@H](CC(F)F)C(=O)NCCc1c(F)cccc1F)C2(C)C)C(C)(C)C)C(C)(C)C)S(C)(=O)=O [Example 306] | < 100 nM
CCN(Cc1ccncc1)C(=O)[C@H](CC(F)F)NC(=O)[C@@H]1[C@@H]2[C@H](CN1C(=O)[C@@H](NC(=O)N[C@H](CN(C)S(C)(=O)=O)C(C)(C)C)C(C)(C)C)C2(C)C [Example 304] | > 500 nM
CN(C[C@@H](NC(=O)N[C@H](C(=O)N1C[C@H]2[C@@H]([C@H]1C(=O)N[C@@H](CC(F)F)C(=O)NCCc1ccncc1)C2(C)C)C(C)(C)C)C(C)(C)C)S(C)(=O)=O [Example 237] | < 100 nM
CN(C[C@@H](NC(=O)N[C@H](C(=O)N1C[C@H]2[C@@H]([C@H]1C(=O)N[C@@H](CC(F)F)C(=O)NCCc1ccc(N)cc1)C2(C)C)C(C)(C)C)C(C)(C)C)S(C)(=O)=O [Example 262] | < 100 nM
CC(C)[C@@H](CO)NC(=O)[C@H](CC(F)F)NC(=O)[C@@H]1[C@@H]2[C@H](CN1C(=O)[C@@H](NC(=O)N[C@H](CN(C)S(C)(=O)=O)C(C)(C)C)C(C)(C)C)C2(C)C [Example 232] | > 500 nM
CCOCCCNC(=O)[C@H](CC(F)F)NC(=O)[C@@H]1[C@@H]2[C@H](CN1C(=O)[C@@H](NC(=O)N[C@H](CN(C)S(C)(=O)=O)C(C)(C)C)C(C)(C)C)C2(C)C [Example 211] | > 500 nM
CN(C[C@@H](NC(=O)N[C@H](C(=O)N1C[C@H]2[C@@H]([C@H]1C(=O)N[C@@H](CC(F)F)C(=O)NCCOc1ccccc1)C2(C)C)C(C)(C)C)C(C)(C)C)S(C)(=O)=O [Example 221] | > 500 nM
CC(O)CNC(=O)[C@H](CC(F)F)NC(=O)[C@@H]1[C@@H]2[C@H](CN1C(=O)[C@@H](NC(=O)N[C@H](CN(C)S(C)(=O)=O)C(C)(C)C)C(C)(C)C)C2(C)C (stereo partly drawn) [Example 231] | > 500 nM
COc1ccc(CCNC(=O)[C@H](CC(F)F)NC(=O)[C@@H]2[C@@H]3[C@H](CN2C(=O)[C@@H](NC(=O)N[C@H](CN(C)S(C)(=O)=O)C(C)(C)C)C(C)(C)C)C3(C)C)cc1 [Example 271] | < 100 nM
CN(C[C@@H](NC(=O)N[C@H](C(=O)N1C[C@H]2[C@@H]([C@H]1C(=O)N[C@@H](CC(F)F)C(=O)NCC(O)c1ccccc1)C2(C)C)C(C)(C)C)C(C)(C)C)S(C)(=O)=O (stereo partly drawn) [Example 246] | 100 to 500 nM
CN(C[C@@H](NC(=O)N[C@H](C(=O)N1C[C@H]2[C@@H]([C@H]1C(=O)N[C@@H](CC(F)F)C(=O)NC1CCN(Cc3ccccc3)CC1)C2(C)C)C(C)(C)C)C(C)(C)C)S(C)(=O)=O [Example 243] | > 500 nM
CN(C[C@@H](NC(=O)N[C@H](C(=O)N1C[C@H]2[C@@H]([C@H]1C(=O)N[C@@H](CC(F)F)C(=O)NC1CCc3ccccc31)C2(C)C)C(C)(C)C)C(C)(C)C)S(C)(=O)=O (stereo partly drawn) [Example 217] | > 500 nM
